For assay [1], the target named is T1, CGRP receptor (SK-N-MC cell membranes) (Homo sapiens, UniProt O60894+Q16602).
T1 construct: endogenous in cells; host or cells: SK-N-MC cells (membrane homogenate)
The assay can be described thus: CGRP Binding Assay ([125I]-CGRP radioligand binding, SK-N-MC homogenate).

Assay [2] concerns the target T2, human CGRP receptor (SK-N-MC cells) (Homo sapiens, UniProt O60894+Q16602).
T2 construct: SK-N-MC cells that endogenously express the human CGRP receptor; endogenous in cells; host or cells: SK-N-MC cells
Put plainly: Cyclic AMP Assay, functional antagonism of CGRP-induced cyclic AMP formation. Format: cell-based. The method, then:
Functional Antagonism. Antagonism of the compounds of invention was determined by measuring the formation of cyclic AMP (adenosine 3′5′-cyclic monophosphate) in SK-N-MC cells that endogenously express the human CGRP receptor. […] For cyclic AMP measurements SK-N-MC cells were incubated with 0.3 nM CGRP alone or in the presence of various concentrations of the compounds of invention for 30 min at room temperature. […] Cyclic AMP was extracted using the lysis reagent and its concentration was determined by radioimmunoassay using RPA559 cAMP SPA Direct Screening Assay Kit (Amersham Pharmacia Biotech). IC50 values were calculated using Excel fit.

Setting [3] is: displacement of [125I]-CGRP, SK-N-MC homogenate, read-out: CGRP binding IC50.
The mark [4] stands for this setting: SK-N-MC cells, 0.3 nM CGRP, read-out: cAMP Function IC50.

Read-outs that look alike come from different tables or passages of the source. Bounds are passed on as bounds.

T1 sequence (Q16602 23-461): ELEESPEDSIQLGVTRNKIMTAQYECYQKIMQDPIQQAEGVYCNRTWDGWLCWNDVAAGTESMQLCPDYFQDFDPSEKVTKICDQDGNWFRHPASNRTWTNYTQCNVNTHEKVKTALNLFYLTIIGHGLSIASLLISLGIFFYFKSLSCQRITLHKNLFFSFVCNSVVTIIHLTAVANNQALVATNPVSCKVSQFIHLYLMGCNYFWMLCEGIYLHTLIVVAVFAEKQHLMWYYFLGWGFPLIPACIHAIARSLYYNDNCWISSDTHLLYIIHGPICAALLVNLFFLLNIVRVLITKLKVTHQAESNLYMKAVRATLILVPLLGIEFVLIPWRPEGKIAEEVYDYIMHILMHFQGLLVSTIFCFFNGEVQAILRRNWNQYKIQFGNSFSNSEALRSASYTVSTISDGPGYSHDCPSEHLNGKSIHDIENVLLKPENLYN
T1 sequence (O60894 27-148): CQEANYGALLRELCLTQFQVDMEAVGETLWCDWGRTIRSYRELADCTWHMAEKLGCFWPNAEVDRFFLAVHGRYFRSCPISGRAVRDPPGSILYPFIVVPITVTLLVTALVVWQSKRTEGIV
T2 sequence (Q16602 23-461): as the sequence (Q16602 23-461) above
T2 sequence (O60894 27-148): as the sequence (O60894 27-148) above

Consider `O=C(NC(Cc1ccc2[nH]ncc2c1)C(=O)N1CCC(N2CCCCC2)CC1)N1CCC(n2c(=O)[nH]c3ccccc32)CC1` (racemic) [Example 4, (±)-4-(2-Oxo-2,3-dihydro-benzoimidazol-1-yl)-piperidine-1-carboxylic acid[2-[1,4′]bipiperidinyl-1′-yl-1-(1H-indazol-5-ylmethyl)-2-oxo-ethyl]-amide], for which the half-maximal inhibitory concentration (IC50) in assay [1] (setting [3]) and in assay [2] (setting [4]) was 10 to 100 nM each time.

As for `CC(C)CN1CCN(C(=O)C(Cc2ccc3[nH]ccc3c2)NC(=O)N2CCC(n3c(=O)[nH]c4ccccc43)CC2)CC1` (racemic) [Example 7, (±)-4-(2-Oxo-2,3-dihydro-benzoimidazol-1-yl)-piperidine-1-carboxylic acid[1-(1H-indol-5-ylmethyl)-2-(4-isobutyl-piperazin-1-yl)-2-oxo-ethyl]-amide], the concentration for half-maximal inhibition (IC50) in assay [1] (setting [3]) and in assay [2] (setting [4]) was 100 to 1000 nM each time.

With `O=C(NC(Cc1ccc2[nH]ccc2c1)C(=O)N1CCC2(CC1)OCCO2)N1CCC(n2c(=O)[nH]c3ccccc32)CC1` (racemic) [Example 8, (±)-4-(2-Oxo-2,3-dihydro-benzoimidazol-1-yl)-piperidine-1-carboxylic acid[2-(1,4-dioxa-8-aza-spiro[4.5]dec-8-yl)-1-(1H-indol-5-ylmethyl)-2-oxo-ethyl]-amide], the IC50 in assay [1] and in assay [2] was 100 to 1000 nM each time.

As for `CC(C)CN1CCN(C(=O)C(Cc2ccc3[nH]ncc3c2)NC(=O)N2CCC(n3c(=O)[nH]c4ccccc43)CC2)CC1` (racemic) [Example 9, (±)-4-(2-Oxo-2,3-dihydro-benzoimidazol-1-yl)-piperidine-1-carboxylic acid[1-(1H-indazol-5-ylmethyl)-2-(4-isobutyl-piperazin-1-yl)-2-oxo-ethyl]-amide], the IC50 in assay [1] (setting [3]) and in assay [2] (setting [4]) was 10 to 100 nM throughout.

`O=C(NC(Cc1ccc2[nH]ncc2c1)C(=O)N1CCC2(CC1)OCCO2)N1CCC(n2c(=O)[nH]c3ccccc32)CC1` (racemic) [Example 10, (±)-4-(2-Oxo-2,3-dihydro-benzoimidazol-1-yl)-piperidine-1-carboxylic acid[2-(1,4-dioxa-8-aza-spiro[4.5]dec-8-yl)-1-(1H-indazol-5-ylmethyl)-2-oxo-ethyl]-amide]: the IC50 in assay [1] is 100 to 1000 nM; in assay [2], 10 to 100 nM.

As to `O=C(NC(Cc1ccc2[nH]ncc2c1)C(=O)N1CCC2(CC1)OCCO2)N1CCC(N2Cc3ccccc3NC2=O)CC1` (racemic) [Example 11, (±)-4-(2-Oxo-1,4-dihydro-2H-quinazolin-3-yl)-piperidine-1-carboxylic acid[2-(1,4-dioxa-8-aza-spiro[4.5]dec-8-yl)-1-(1H-indazol-5-ylmethyl)-2-oxo-ethyl]-amide], the IC50 in assay [1] (setting [3]) and in assay [2] was 10 to 100 nM throughout.

As to `COC(=O)C(Cc1cc(C)c2[nH]ncc2c1)NC(=O)N1CCC(N2Cc3ccccc3NC2=O)CC1` (racemic) [Example 12, (±)-3-(7-Methyl-1H-indazol-5-yl)-2-{[4-(2-oxo-1,4-dihydro-2H-quinazolin-3-yl)-piperidine-1-carbonyl]-amino}-propionic acid methyl ester], the IC50 was 10 to 100 nM in assay [1] (setting [3]) and 100 to 1000 nM in assay [2] (setting [4]).

As for `Cc1cc(CC(NC(=O)N2CCC(N3Cc4ccccc4NC3=O)CC2)C(=O)O)cc2cn[nH]c12` (racemic) [Example 15, (±)-3-(7-Methyl-1H-indazol-5-yl)-2-{[4-(2-oxo-1,4-dihydro-2H-quinazolin-3-yl)-piperidine-1-carbonyl]-amino}-propionic acid], the IC50 in assay [1] (setting [3]) and in assay [2] (setting [4]) was 100 to 1000 nM each time.

For the compound `Cc1cc(CC(NC(=O)N2CCC(N3Cc4ccccc4NC3=O)CC2)C(=O)N2CCN(c3ccccn3)CC2)cc2cn[nH]c12` (racemic) [Example 22, (±)-4-(2-Oxo-1,4-dihydro-2H-quinazolin-3-yl)-piperidine-1-carboxylic acid[1-(7-methyl-1H-indazol-5-ylmethyl)-2-oxo-2-(4-pyridin-2-yl-piperazin-1-yl)-ethyl]-amide], the IC50 in assay [1] (setting [3]) and in assay [2] (setting [4]) was less than 10 nM throughout.

Take `Cc1cc(CC(NC(=O)N2CCC3(CC2)NC(=O)Nc2ccccc23)C(=O)N2CCCCC2)cc2cn[nH]c12` (racemic) [Example 24, (±)-1-(7-Methyl-1H-indazol-5-ylmethyl)-2-(1-piperidinyl)-2-oxoethyl]-2′,3′-dihydro-2′-oxospiro-[piperidine-4,4′-(1H)-quinazoline]-1-carboxamide]: the IC50 in assay [1] (setting [3]) and in assay [2] (setting [4]) was 10 to 100 nM throughout.

`Cc1cc(CC(NC(=O)N2CCC3(CC2)OC(=O)Nc2ccccc23)C(=O)N2CCCCC2)cc2cn[nH]c12` (racemic) [Example 26, (±)-1-(7-Methyl-1H-indazol-5-ylmethyl)-2-(1-piperidinyl)-2-oxoethyl]-1′,2′-dihydro-2′-oxospiro-[4H-3′,1-benzoxazine-4,4′-piperidine]-1-carboxamide]: the IC50 in assay [1] (setting [3]) and in assay [2] (setting [4]) was 10 to 100 nM each time.

Regarding `Cc1cc(CC(NC(=O)N2CCC3(CC2)OC(=O)Nc2ccccc23)C(=O)N(C)C)cc2cn[nH]c12` (racemic) [Example 27, (±)-[1-Dimethylcarbamoyl-2-(7-methyl-1H-indazol-5-yl)-ethyl]-1′,2′-dihydro-2′-oxospiro-[4H-3′,1-benzoxazine-4,4′-piperidine]-1-carboxamide], the IC50 in assay [1] (setting [3]) was in the range of 10 to 100 nM; in assay [2] (setting [4]) it was 100 to 1000 nM.

In the case of `Cc1cc(CC(NC(=O)N2CCC3(CC2)CC(=O)Nc2ccccc23)C(=O)N2CCC(N3CCCCC3)CC2)cc2cn[nH]c12` (racemic) [Example 31, (±)-1-(7-Methyl-1H-indazol-5-ylmethyl)-2-[1,4-bipiperidin]-1-yl-2-oxoethyl]3′,4′-dihydro-2′-oxospiro-[piperidine-4,4′-(1H)-quinoline]-1-carboxamide], the IC50 in assay [1] (setting [3]) and in assay [2] (setting [4]) was less than 10 nM throughout.

As for `Cc1cc(CC(NC(=O)N2CCC3(CC2)N=C(c2ccccc2)NC3=O)C(=O)N2CCC(N3CCCCC3)CC2)cc2cn[nH]c12` (racemic) [Example 34, (±)-4-Oxo-2-phenyl-1,3,8-triaza-spiro[4,5]dec-1-ene-8-carboxylic acid {1-(7-methyl-1H-indazol-5-yl methyl)-2-[1,4]bipiperidinyl-1′-yl-2-oxo-ethyl}-amide], the IC50 in assay [1] (setting [3]) and in assay [2] (setting [4]) was less than 10 nM each time.

Take `Cc1cc(CC(NC(=O)N2CCC3(CC2)N=C(c2ccccc2)NC3=O)C(=O)N2CCCCC2)cc2cn[nH]c12` (racemic) [Example 35, (±)-4-Oxo-2-phenyl-1,3,8-triaza-spiro[4,5]dec-1-ene-8-carboxylic acid {1-(7-methyl-1H-indazol-5-yl methyl)-2-[1-piperidinylyl]-2-oxo-ethyl}-amide]: the IC50 in assay [1] (setting [3]) and in assay [2] (setting [4]) was 10 to 100 nM in each case.

As for `O=C(Nc1ccc(Cl)cc1C(F)(F)F)N[C@@H](CC(=O)N1CCC(N2Cc3ccccc3NC2=O)CC1)C(=O)N1CCC(N2CCCCC2)CC1` [Example 188], the IC50 in assay [1] (setting [3]) was 100 to 1000 nM.

As to `CCOc1ccc(NC(=O)N[C@@H](CC(=O)N2CCC(N3Cc4ccccc4NC3=O)CC2)C(=O)N2CCC(N3CCCCC3)CC2)cc1` [Example 189], the IC50 in assay [1] (setting [3]) lay in the range of 100 to 1000 nM.

As for `CCc1ccc(NC(=O)N[C@@H](CC(=O)N2CCC(N3Cc4ccccc4NC3=O)CC2)C(=O)N2CCC(N3CCCCC3)CC2)cc1` [Example 190], in assay [1] (setting [3]), the IC50 fell in the range of 100 to 1000 nM.

In the case of `Cc1cc(Cl)ccc1NC(=O)N[C@@H](CC(=O)N1CCC(N2Cc3ccccc3NC2=O)CC1)C(=O)N1CCC(N2CCCCC2)CC1` [Example 191], the IC50 in assay [1] (setting [3]) fell in the range of 100 to 1000 nM.

On to `Cc1c(Cl)cccc1NC(=O)N[C@@H](CC(=O)N1CCC(N2Cc3ccccc3NC2=O)CC1)C(=O)N1CCC(N2CCCCC2)CC1` [Example 192], for which, in assay [1] (setting [3]), the IC50 is 100 to 1000 nM.

For the compound `O=C(Nc1ccc(F)c(Cl)c1)N[C@@H](CC(=O)N1CCC(N2Cc3ccccc3NC2=O)CC1)C(=O)N1CCC(N2CCCCC2)CC1` [Example 193], the IC50 in assay [1] (setting [3]) fell in the range of 10 to 100 nM.

As to `Cc1cc(Br)ccc1NC(=O)N[C@@H](CC(=O)N1CCC(N2Cc3ccccc3NC2=O)CC1)C(=O)N1CCC(N2CCCCC2)CC1` [Example 194], the concentration for half-maximal inhibition (IC50) in assay [1] (setting [3]) was 100 to 1000 nM.

Regarding `Cc1ccc(F)cc1NC(=O)N[C@@H](CC(=O)N1CCC(N2Cc3ccccc3NC2=O)CC1)C(=O)N1CCC(N2CCCCC2)CC1` [Example 195], the IC50 in assay [1] (setting [3]) was 100 to 1000 nM.

For the compound `COC(=O)c1cccc(NC(=O)N[C@@H](CC(=O)N2CCC(N3Cc4ccccc4NC3=O)CC2)C(=O)N2CCC(N3CCCCC3)CC2)c1` [Example 196], the half-maximal inhibitory concentration (IC50) in assay [1] (setting [3]) was 10 to 100 nM.

Regarding `O=C(Nc1ccccc1-c1ccccc1)N[C@@H](CC(=O)N1CCC(N2Cc3ccccc3NC2=O)CC1)C(=O)N1CCC(N2CCCCC2)CC1` [Example 197], in assay [1] (setting [3]), the concentration for half-maximal inhibition (IC50) is 100 to 1000 nM.

For `C[C@@H](NC(=O)N[C@@H](CC(=O)N1CCC(N2Cc3ccccc3NC2=O)CC1)C(=O)N1CCC(N2CCCCC2)CC1)c1ccccc1` [Example 198], the IC50 in assay [1] (setting [3]) fell in the range of 100 to 1000 nM.

With `CC(NC(=O)N[C@@H](CC(=O)N1CCC(N2Cc3ccccc3NC2=O)CC1)C(=O)N1CCC(N2CCCCC2)CC1)c1cccc2ccccc12` (stereo partly shown) [Example 199], the IC50 in assay [1] (setting [3]) fell in the range of 10 to 100 nM.

Turning to `O=C(Nc1ccccc1OC(F)(F)F)N[C@@H](CC(=O)N1CCC(N2Cc3ccccc3NC2=O)CC1)C(=O)N1CCC(N2CCCCC2)CC1` [Example 200], the IC50 in assay [1] (setting [3]) was 10 to 100 nM.
